What was measured:
[1] = system: Human peripheral blood mononuclear cells; assay: Human Concanavalin-A Proliferation Assay (Con HU Assay); assay type: cell-based; settings: Homo sapiens, PBMC, concanavalin-A stimulated human PBMC; for IC50: tritiated thymidine; for inhibition at 100 µM / inhibition at 10 µM / inhibition at 1 µM: 72 h, 3 days, read-out: % Inhibition of proliferation (at concentrations of 1,10, or 100 μm); for inhibition at 100 µM: concentration 100 μm (in parentheses in the cell); for inhibition at 10 µM: concentration 10 μm (in parentheses in the cell); for inhibition at 1 µM: concentration 1 μm (in parentheses in the cell)
Method in brief: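 Proliferation read as tritiated thymidine uptake (0.5 μCi/well, 6 h pulse on day 3) in human PBMC cultured 3 days with 2.5 μg/ml (final) concanavalin-A. Cells, 50,000 per well in supplemented RPMI 1640 with 10% FBS, received compound 15 min before mitogen.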

| melting point [°C] | SMILES | IC50 [1] [nM] | inhibition at 100 µM [1] [%] | inhibition at 10 µM [1] [%] | inhibition at 1 µM [1] [%] |
| --- | --- | --- | --- | --- | --- |
| 160 to 161 | COc1cc(C(F)(F)F)nn1-c1ccc(NC(=O)c2ccncc2F)cc1 [Example 321, 3-fluoro-N-(4-(5-methoxy-3-(trifluoromethyl)-1H-pyrazol-1-yl)phenyl)isonicotinamide] | 185 |  |  |  |
| 211 to 212 | Cn1cc(C(=O)Nc2ccc(-n3nc(C(F)(F)F)cc3C(F)(F)F)cc2)cn1 [Example 265, N-[4-[3,5-bis(trifluoromethyl)-1H-pyrazol-1-yl]phenyl]-1-methyl-1H-pyrazole-4-carboxamide] | 3810 |  | 90 |  |
| 209 to 211 | O=C(Cc1ccc(Cl)cc1)Nc1cccc(-n2nc(C(F)(F)F)cc2C(F)(F)F)c1 [Example 197, N-[3-[3,5-bis(trifluoromethyl)-1H-pyrazol-1-yl]phenyl]-4-chlorobenzeneacetamide] |  |  |  | 1 |
| 198 to 199 | O=C(Nc1ccc(-n2nc(C(F)(F)F)cc2C(F)(F)F)cc1)c1ccc([N+](=O)[O-])o1 [Example 247, N-[4-[3,5-bis(trifluoromethyl)-1H-pyrazol-1-yl]phenyl]-5-nitro-2-furancarboxamide] | 375 |  | 97 |  |
| 154 to 156 | O=C(Nc1ccc(-n2nc(C(F)(F)F)cc2C(F)(F)F)cc1)c1cc(Cl)ccc1Cl [Example 208, N-[4-[3,5-bis(trifluoromethyl)-1H-pyrazol-1-yl]phenyl]-2,5-dichlorobenzamide] | 149 |  | 99 |  |
| 160 to 161 | N#Cc1cccc(C(=O)Nc2cccc(-n3nc(C(F)(F)F)cc3C(F)(F)F)c2)c1 [Example 204, N-[3-[3,5-bis(trifluoromethyl)-1H-pyrazol-1-yl]phenyl]-3-cyanobenzamide] |  |  |  | 12 |
| 113 to 116 | O=C(Nc1ccc(-n2nc(C(F)(F)F)cc2C(F)(F)F)nc1)c1cc(F)c(F)cc1Cl [Example 262, N-[2-[3,5-bis(trifluoromethyl)-1H-pyrazol-1-yl]-5-pyridinyl]-2-chloro-4,5-difluorobenzamide] | 419 |  | 100 |  |
| 148 to 149 | Cn1cccc1C(=O)Nc1ccc(-n2nc(C(F)(F)F)cc2C(F)(F)F)cc1 [Example 248, N-[4-[3,5-bis(trifluoromethyl)-1H-pyrazol-1-yl]phenyl]-1-methyl-1H-pyrrole-2-carboxamide] | 143 |  | 100 |  |
| 172 to 173 | O=C1CCC(C(=O)Nc2ccc(-n3nc(C(F)(F)F)cc3C(F)(F)F)cc2)O1 (stereo not drawn) [Example 254, N-[4-[3,5-bis(trifluoromethyl)-1H-pyrazol-1-yl]phenyl]tetrahydro-5-oxo-2-furancarboxamide] |  |  |  | 9 |
| 195 to 196 | NC(=O)c1ccccc1NC(=O)c1ccc(-n2nc(C(F)(F)F)cc2C(F)(F)F)cc1 [Example 196, N-[2-(aminocarbonyl)phenyl]-4-[3,5-bis(trifluoromethyl)-1H-pyrazol-1-yl]benzamide] |  |  |  | 11 |
| 142 to 143 | CSc1cc(C(F)(F)F)nn1-c1ccc(NC(=O)c2ccncc2F)cc1 [Example 320, 3-fluoro-N-(4-(5-(methylsulfanyl)-3-(trifluoromethyl)-1H-pyrazol-1-yl)phenyl)isonicotinamide] | 43 |  |  |  |
| 169 to 170 | O=C(Nc1ccc(-n2nc(C(F)(F)F)cc2C(F)(F)F)cc1)c1cc(F)cc(F)c1F [Example 231, N-[4-[3,5-bis(trifluoromethyl)-1H-pyrazol-1-yl]phenyl]-2,3,5-trifluorobenzamide] | 25 |  | 100 |  |
| 202 to 204 | O=C(Nc1ccc(-n2nc(C(F)(F)F)cc2C(F)(F)F)cc1)c1ccno1 [Example 240, N-[4-[3,5-bis(trifluoromethyl)-1H-pyrazol-1-yl]phenyl]-5-isoxazolecarboxamide] | 507 |  | 84 |  |
| 234 to 235 | O=C(Nc1ccncc1)c1ccc(-n2nc(C(F)(F)F)cc2C(F)(F)F)cc1 [Example 194, 4-[3,5-Bis(trifluoromethyl)-1H-pyrazol-1-yl]-N-(4-pyridinyl)benzamide] |  |  |  | 23 |

Continued, compound first:

| SMILES | melting point [°C] | IC50 [1] [nM] | inhibition at 100 µM [1] [%] | inhibition at 10 µM [1] [%] | inhibition at 1 µM [1] [%] |
| --- | --- | --- | --- | --- | --- |
| O=C(Nc1ccc(-n2nc(C(F)(F)F)cc2C(F)(F)F)cc1)c1ccccc1F [Example 114, N-[4-[3,5-bis(trifluoromethyl)-1H-pyrazol-1-yl]phenyl]-2-fluorobenzamide] | 188 to 190 | 84 | 98 |  |  |
| CN(C)c1cccc(C(=O)Nc2ccc(-n3nc(C(F)(F)F)cc3C(F)(F)F)cc2)c1 [Example 88, N-[4-[3,5-bis(trifluoromethyl)-1H-pyrazol-1-yl]phenyl]-3-(dimethylamino)benzamide] | 180 to 181 |  |  |  | 29 |
| O=C(Nc1ccc(-n2nc(C(F)(F)F)cc2C(F)(F)F)cc1)c1ccc(Cl)nc1Cl [Example 149, N-[4-[3,5-bis(trifluoromethyl)-1H-pyrazol-1-yl]phenyl]-2,6-dichloro-3-pyridinecarboxamide] | 115 to 117 | 336 | 100 |  |  |
| Cc1c(NC(=O)Nc2ccc(-n3nc(C(F)(F)F)cc3C(F)(F)F)cc2)cccc1[N+](=O)[O-] [Example 40, N-[4-[3,5-bis(trifluoromethyl)-1H-pyrazol-1-yl]phenyl]-N′-(2-methyl-3-nitrophenyl)urea] | 235 to 236 |  |  |  | 36 |
| O=C(Nc1ccc(-n2nc(C(F)(F)F)cc2C(F)(F)F)cc1)C1CC1 [Example 1, N-[4-[3,5-bis(trifluoromethyl)-1H-pyrazol-1-yl]phenyl]cyclopropanecarboxamide] | 204 to 205 |  |  |  | 68 |
| CC(=O)N1CCC(C(=O)Nc2ccc(-n3nc(C(F)(F)F)cc3C(F)(F)F)cc2)CC1 [Example 174, 1-Acetyl-N-[4-[3,5-bis(trifluoromethyl)-1H-pyrazol-1-yl]phenyl]-4-piperidinecarboxamide] | 94 to 95 | 730 |  | 99 |  |
| N#Cc1cccc(NC(=O)c2ccc(-n3nc(C(F)(F)F)cc3C(F)(F)F)cc2)c1 [Example 186, 4-[3,5-Bis(trifluoromethyl)-1H-pyrazol-1-yl]-N-(3-cyanophenyl)benzamide] | 195 to 196 |  |  |  | 14 |
| O=C(Nc1ccc(-n2nc(C(F)(F)F)cc2C(F)(F)F)cc1)c1ccc(C(F)(F)F)cc1 [Example 89, N-[4-[3,5-bis(trifluoromethyl)-1H-pyrazol-1-yl]phenyl]-4-(trifluoromethyl)benzamide] | 170 to 172 | 1230 | 99 |  |  |
| COc1cccc(C(=O)Nc2ccc(-n3nc(C(F)(F)F)cc3C(F)(F)F)cc2)c1 [Example 145, N-[4-[3,5-bis(trifluoromethyl)-1H-pyrazol-1-yl]phenyl]-3-methoxybenzamide] | 169 to 172 | 1590 | 94 |  |  |
| O=C(Nc1ccccc1Cl)c1ccc(-n2nc(C(F)(F)F)cc2C(F)(F)F)cc1 [Example 185, 4-[3,5-Bis(trifluoromethyl)-1H-pyrazol-1-yl]-N-(2-chlorophenyl)benzamide] | 162 to 164 |  |  |  | 26 |
| Cc1cc(Br)cc(C)c1NC(=O)Nc1ccc(-n2nc(C(F)(F)F)cc2C(F)(F)F)cc1 [Example 45, N-[4-[3,5-bis(trifluoromethyl)-1H-pyrazol-1-yl]phenyl]-N′-(4-bromo-2,6-dimethylphenyl)urea] | > 230 |  |  |  | 18 |
| O=C(Cc1ccc(Cl)cc1)Nc1ccc(-n2nc(C(F)(F)F)cc2C(F)(F)F)cc1 [Example 169, N-[4-[3,5-bis(trifluoromethyl)-1H-pyrazol-1-yl]phenyl]-4-chlorobenzeneacetamide] | 122 to 124 |  |  |  | 2 |
| O=C(Cc1cc2ccccc2[nH]1)Nc1ccc(-n2nc(C(F)(F)F)cc2C(F)(F)F)cc1 [Example 170, N-[4-[3,5-bis(trifluoromethyl)-1H-pyrazol-1-yl]phenyl]-1H-indole-2-acetamide] | 176 to 178 |  |  |  | 25 |
| COc1ccc(C(=O)Nc2ccc(-n3nc(C(F)(F)F)cc3C(F)(F)F)cc2)cc1 [Example 71, N-[4-[3,5-bis(trifluoromethyl)-1H-pyrazol-1-yl]phenyl]-4-methoxybenzamide] | 205 to 207 | 544 |  | 87 |  |
| CC(=O)Oc1ccccc1C(=O)Nc1ccc(-n2nc(C(F)(F)F)cc2C(F)(F)F)cc1 [Example 76, 2-(Acetyloxy)-N-[4-[3,5-bis(trifluoromethyl)-1H-pyrazol-1-yl]phenyl]benzamide] | 159 to 161 | 3170 | 100 |  |  |
| O=C(Nc1ccc(-n2nc(C(F)(F)F)cc2C(F)(F)F)cc1)c1cccc(C(F)(F)F)c1 [Example 101, N-[4-[3,5-bis(trifluoromethyl)-1H-pyrazol-1-yl]phenyl]-3-(trifluoromethyl)benzamide] | 143 to 145 | 2230 | 100 |  |  |

Reference: patent US20010044445A1, “AZOLE INHIBITORS OF CYTOKINE PRODUCTION” (priority 1999, published 2001)
